Patent US9302999B2, “Substituted triazoles as herbicides” (E. I. DU PONT DE NEMOURS AND COMPANY, priority 2012, dated 2016)

What was measured:
Format in all cases: in vivo
[1] = tested on: corn (Zea mays); experiment: Test C pre-/postemergence: corn
In short: (§1)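 Visual injury scored 0–100 (100 = complete control) against untreated controls after 13–15 greenhouse days. Surfactant-containing solvent formulations applied either to soil after sowing (loam/sand) or over 1- to 4-leaf plants, 2–18 cm tall.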

[2] = tested on: ragweed (common ragweed, Ambrosia elation); experiment: Test C pre-/postemergence: ragweed
In short: as §1

[3] = tested on: corn (Zea mays); experiment: Test A pre-/postemergence: corn; details: for Corn plant response rating: Postemergence; for Plant response rating, Corn: Preemergence
In short: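 Seeds were sown in loam/sand blend and sprayed preemergence (directed soil spray) and, simultaneously, postemergence at 2–10 cm, one- to two-leaf stage, using compounds in non-phytotoxic solvent with surfactant. After ~10 days in greenhouse, injury was rated visually versus untreated controls, 0 (no effect) to 100 (complete control).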

[4] = tested on: large crabgrass (Digitaria sanguinalis); experiment: Test C pre-/postemergence: large crabgrass
In short: as §1

[5] = tested on: kochia (Kochia scoparia); experiment: Test C pre-/postemergence: kochia
In short: as §1

[6] = tested on: nutsedge, yellow (yellow nutsedge, Cyperus esculentus); experiment: Test C pre-/postemergence: nutsedge, yellow
In short: as §1

[7] = tested on: foxtail, giant (giant foxtail, Setaria faberii); experiment: Test C pre-/postemergence: foxtail, giant
In short: as §1

[8] = tested on: chickweed (common chickweed, Stellaria media); experiment: Test C postemergence: chickweed
In short: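 Visual ratings of 0 (no effect) to 100 (complete control) were made against controls 13-15 days after a postemergence spray, with plants kept in a greenhouse. Plants were 2-18 cm tall (1- to 4-leaf stage) in Redi-Earth peat/vermiculite medium at treatment.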

[9] = tested on: velvetleaf (Abutilon theophrasti); experiment: Test C pre-/postemergence: velvetleaf
In short: as §1

[10] = tested on: ducksalad (Heteranthera limosa); experiment: Test B flooded paddy: ducksalad; details: Flood; 250 g ai/ha; applied to paddy water at 2-leaf stage; visually evaluated after 13 to 15 days
In short: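 At two leaves, seedlings received the test compound via the paddy water, pots having been flooded 3 cm over the soil surface and kept so. Greenhouse-held for 13 to 15 days, then judged by eye against controls on a scale running 0 (no effect) to 100 (complete control).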

[11] = tested on: wild oat (Avena fatua); experiment: Test C pre-/postemergence: wild oat
In short: as §1

[12] = Postemergence, 31 g ai/ha, scale 0 to 100 (0 no effect, 100 complete control)
[13] = Postemergence, 62 g ai/ha, scale 0 to 100 (0 no effect, 100 complete control)
[14] = Postemergence, 125 g ai/ha, scale 0 to 100, 0 no effect, 100 complete control
[15] = Postemergence, 250 g ai/ha, scale 0 to 100
[16] = 125 g ai/ha, 0 to 100 scale, 0 is no effect, 100 is complete control
[17] = 500 g ai/ha, visual rating on 0 to 100 scale (0 no effect, 100 complete control), approximately ten days
[18] = 31 g ai/ha, scale 0 to 100 (0 no effect, 100 complete control)
[19] = 62 g ai/ha, scale 0 to 100 (0 no effect, 100 complete control)
[20] = 125 g ai/ha, scale 0 to 100, 0 no effect, 100 complete control
[21] = Preemergence, 31 g ai/ha, scale of 0 to 100, 0 is no effect, 100 is complete control
[22] = Preemergence, 125 g ai/ha, scale 0 to 100, 0 no effect, 100 complete control
[23] = Preemergence, 250 g ai/ha, scale 0 to 100, 0 no effect, 100 complete control
[24] = Preemergence, 62 g ai/ha, scale of 0 to 100, 0 is no effect, 100 is complete control

## Cc1nn(-c2ccnc(Cl)c2)nc1Cc1ccnc(C(F)(F)F)c1 [Compound 141]
[1]; [12]
  Plant response rating, Corn: 45
[1]; [13]
  Plant response rating, Corn: 45
[1]; [14]
  Plant response rating, Corn: 55
[1]; [15]
  Plant response rating, Corn: 60
[2]; [12]
  Plant response rating, Ragweed: 60
[2]; [13]
  Plant response rating, Ragweed: 70
[2]; [15]
  Plant response rating, Ragweed: 85
[3]; [16]
  Corn plant response rating: 30
[3]; [17]
  Corn plant response rating: 50
[3]; 125 g ai/ha, 0 to 100 scale where 0 is no effect and 100 is complete control
  Plant response rating, Corn: 0
[3]; 500 g ai/ha, 0 to 100 scale (0 no effect, 100 complete control)
  Plant response rating, Corn: 30
[4]; [12]
  Plant response rating, Crabgrass, Large: 20
[4]; [13]
  Plant response rating, Crabgrass, Large: 55
[4]; [14]
  Plant response rating, Crabgrass, Large: 80
[4]; [15]
  Plant response rating, Crabgrass, Large: 95
[5]; [12]
  Plant response rating, Kochia: 85
[5]; [13]
  Plant response rating, Kochia: 90
[5]; [14]
  Plant response rating, Kochia: 90
[5]; [15]
  Plant response rating, Kochia: 90
[6]; [12]
  Plant response rating, Nutsedge, Yellow: 0
[6]; [13]
  Plant response rating, Nutsedge, Yellow: 10
[6]; [14]
  Plant response rating, Nutsedge, Yellow: 15
[6]; [15]
  Plant response rating, Nutsedge, Yellow: 15
[7]; [12]
  Plant response rating, Foxtail, Giant: 10
[7]; [13]
  Plant response rating, Foxtail, Giant: 20
[7]; [14]
  Plant response rating, Foxtail, Giant: 45
[7]; [15]
  Plant response rating, Foxtail, Giant: 80
[8]; [18]
  Plant response rating, Chickweed: 80
[8]; [19]
  Plant response rating, Chickweed: 90
[8]; [20]
  Plant response rating, Chickweed: 98
[8]; 250 g ai/ha, scale 0 to 100
  Plant response rating, Chickweed: 100
[9]; [12]
  Plant response rating, Velvetleaf: 40
[9]; [13]
  Plant response rating, Velvetleaf: 55
[9]; [14]
  Plant response rating, Velvetleaf: 60
[9]; [15]
  Plant response rating, Velvetleaf: 60
[10]
  Plant response rating, Ducksalad (0 to 100 scale, 0 is no effect, 100 is complete control): 85
[11]; [12]
  Plant response rating, Oat, Wild: 10
[11]; [13]
  Plant response rating, Oat, Wild: 15
[11]; [14]
  Plant response rating, Oat, Wild: 45
[11]; [15]
  Plant response rating, Oat, Wild: 70

## Fc1ccc(-n2nc(Cc3ccnc(C(F)(F)F)c3)c(OC(F)F)n2)cc1 [Compound 25]
[1]; [12]
  Plant response rating, Corn: 20
[1]; [13]
  Plant response rating, Corn: 20
[1]; [14]
  Plant response rating, Corn: 20
[1]; [15]
  Plant response rating, Corn: 25
[1]; [21]
  Plant response rating, Corn: 0
[1]; Preemergence, 62 g ai/ha, scale 0 to 100, 0 no effect, 100 complete control
  Plant response rating, Corn: 0
[1]; [22]
  Plant response rating, Corn: 5
[1]; [23]
  Plant response rating, Corn: 10
[2]; [12]
  Plant response rating, Ragweed: 50
[2]; [13]
  Plant response rating, Ragweed: 50
[2]; [14]
  Plant response rating, Ragweed: 60
[2]; [15]
  Plant response rating, Ragweed: 60
[2]; [21]
  Plant response rating, Ragweed: 5
[2]; [24]
  Plant response rating, Ragweed: 5
[2]; [22]
  Plant response rating, Ragweed: 20
[2]; [23]
  Plant response rating, Ragweed: 50
[3]; [16]
  Corn plant response rating: 30
[3]; [17]
  Corn plant response rating: 30
[3]; 125 g ai/ha, 0 to 100 scale (0 no effect, 100 complete control)
  Plant response rating, Corn: 10
[3]; 500 g ai/ha, 0 to 100 scale, 0 is no effect, 100 is complete control
  Plant response rating, Corn: 30
[4]; [12]
  Plant response rating, Crabgrass, Large: 15
[4]; [13]
  Plant response rating, Crabgrass, Large: 20
[4]; [14]
  Plant response rating, Crabgrass, Large: 40
[4]; [15]
  Plant response rating, Crabgrass, Large: 65
[4]; [21]
  Plant response rating, Crabgrass, Large: 98
[4]; [24]
  Plant response rating, Crabgrass, Large: 100
[4]; [22]
  Plant response rating, Crabgrass, Large: 100
[4]; [23]
  Plant response rating, Crabgrass, Large: 100
[5]; [12]
  Plant response rating, Kochia: 75
[5]; [13]
  Plant response rating, Kochia: 80
[5]; [14]
  Plant response rating, Kochia: 90
[5]; [15]
  Plant response rating, Kochia: 90
[5]; [21]
  Plant response rating, Kochia: 10
[5]; [24]
  Plant response rating, Kochia: 40
[5]; [22]
  Plant response rating, Kochia: 55
[5]; [23]
  Plant response rating, Kochia: 85
[6]; [12]
  Plant response rating, Nutsedge, Yellow: 5
[6]; [13]
  Plant response rating, Nutsedge, Yellow: 5
[6]; [14]
  Plant response rating, Nutsedge, Yellow: 10
[6]; [15]
  Plant response rating, Nutsedge, Yellow: 10
[6]; [21]
  Plant response rating, Nutsedge, Yellow: 0
[6]; [24]
  Plant response rating, Nutsedge, Yellow: 0
[6]; [22]
  Plant response rating, Nutsedge, Yellow: 0
[6]; [23]
  Plant response rating, Nutsedge, Yellow: 0
[7]; [12]
  Plant response rating, Foxtail, Giant: 35
[7]; [13]
  Plant response rating, Foxtail, Giant: 45
[7]; [14]
  Plant response rating, Foxtail, Giant: 55
[7]; [15]
  Plant response rating, Foxtail, Giant: 60
[7]; [21]
  Plant response rating, Foxtail, Giant: 98
[7]; [24]
  Plant response rating, Foxtail, Giant: 100
[7]; [22]
  Plant response rating, Foxtail, Giant: 100
[7]; [23]
  Plant response rating, Foxtail, Giant: 100
[8]; [18]
  Plant response rating, Chickweed: 30
[8]; [19]
  Plant response rating, Chickweed: 60
[8]; [20]
  Plant response rating, Chickweed: 98
[8]; 250 g ai/ha, scale 0 to 100
  Plant response rating, Chickweed: 98
[9]; [12]
  Plant response rating, Velvetleaf: 15
[9]; [13]
  Plant response rating, Velvetleaf: 15
[9]; [14]
  Plant response rating, Velvetleaf: 45
[9]; [15]
  Plant response rating, Velvetleaf: 50
[9]; [21]
  Plant response rating, Velvetleaf: 0
[9]; [24]
  Plant response rating, Velvetleaf: 5
[9]; [22]
  Plant response rating, Velvetleaf: 15
[9]; [23]
  Plant response rating, Velvetleaf: 70
[10]
  Plant response rating, Ducksalad (0 to 100 scale, 0 is no effect, 100 is complete control): 90
[11]; [12]
  Plant response rating, Oat, Wild: 5
[11]; [13]
  Plant response rating, Oat, Wild: 5
[11]; [14]
  Plant response rating, Oat, Wild: 30
[11]; [15]
  Plant response rating, Oat, Wild: 30
[11]; [21]
  Plant response rating, Oat, Wild: 20
[11]; [24]
  Plant response rating, Oat, Wild: 30
[11]; [22]
  Plant response rating, Oat, Wild: 80
[11]; [23]
  Plant response rating, Oat, Wild: 90
